US6989270B1, “Using polyamide nucleic acid oligomers to engender a biological response” (Mayo Foundation for Medical Education and Research, priority 1997, dated 2006)

Key:
Assay type in all cases: in vivo, rat
[1] = tested on: neurotensin receptor-1 (NTR1); assay: NT-induced hypothermia (rectal body temperature) in PNA-treated rats
Experimental: NTR1-PNA, MU1R-PNA, and ACSF treated as well as untreated rats were analyzed using the hot plate test for NT. One day after the last treatment, each rat was analyzed as follows. Fifteen minutes prior to testing, a pre-drug latency measurement was made by placing the rat on a hot plate maintained at a temperature of 52±0.15° C. and recording the time elapsed before the rat licked either of its hindpaws. In addition, the temperature of the rat was taken using a thermister probe inserted 3 cm in the rectum to determine the pre-drug body temperature (BT). After making these measurement, an appropriate dose of NT (18 nmol) at a volume of about 0.5 ul was administered into the PAG as described above. Thirty minutes after administering NT, the rat was again placed on a hot plate maintained at a temperature of 52±0.15° C. and the latency between the time the rat was placed on the surface and the time it licked either of its hindpaws was measured. […] Hot plate tests were scored as the percent of maximum possible effect (% MPE) and calculated using the following equation: % MPE=[(post-drug latency−pre-drug latency)/(cut-off−pre-drug latency)]×100; where the cut-off is 30 seconds. […] This average for untreated control rats was used to set the baseline MPE value to 100. Immediately after the 30 second hot plate test, BT was taken to measure NT-induced hypothermia using a thermister probe inserted 3 cm in the rectum. […] All test situations were compared to these baseline values derived from NT responsive untreated controls.
AS-NTR1-PNA, mismatch-AS-NTR1-PNA, and MU1R-PNA were injected intraperitoneally (10 mg/kg) independently, into separate groups of male Sprague-Dawley rats (Harlan, Prattville, Ala.). The sense-NTR1-PNA oligomer, however, was microinjected directly into the periaqueductal gray (PAG; 5 μg), the major area in the brain involved with perception of pain (nociception). […] Thirty minutes after receiving NT, animals were scored for anti-nociception (hot plate at 52° C.) and hypothermia (rectal probe). Again, anti-nociception scores were calculated as percent of maximum possible effect (% MPE) with the following equation: % MPE=[(post-drug latency time minus pre-drug latency time)/(cut-off time minus pre-drug latency time)]×100; where the cut-off time (i.e., the time when the animal was removed from the device) was 30 seconds for a hot plate test and 12 seconds for a tail flick test. Statistical analysis was done using the rank sum test.

[2] = tested on: [125I]neurotensin binding sites (NT receptors); assay: [125I]neurotensin binding assay, PAG and hypothalamus homogenates of treated rats
Experimental: Binding assays were done with homogenates from rat PAG and hypothalamus tissue as described elsewhere (Kanba et al., J. Neurochem. 46:946-952 (1986) and Al-Rodhan N.R.F., Brain Res. 557:227-235 (1991)). Tissue concentrations were 1 mg wet weight per tube in a total volume of 100 μl with a final buffer concentration of 0.05 M Tris-HCl (pH 7.4) containing the following compounds to inhibit degradation of peptides: 0.02% (w/v) bovine serum albumin, 2.8 mg/ml bacitracin, 1.0 mM EDTA, 0.5 mM o-phenanthroline, 10 μg/ml pepstatin, 10 μg/ml leupeptin, 10 μg/ml aprotinin, 5 mM benzamidine, 2 mM phenylmethylsulfonylfluoride, and 50 μM bestatin. For each experiment, 80 μl of a thawed membranal suspension was incubated for 25 minutes at 20° C. in a solution containing 0.2 nM [^125I]neurotensin with a final volume of 100 μl. After incubation, the mixture was rapidly filtered to separate bound from unbound radioligand. Each filter was then dried for 2 minutes, placed on a solid scintillation sheet (Wallac Oy, Turku Finland; cat. no. 1205-441), and measured for radioactivity in a beta-plate scintillation counter (Wallac Oy; model # 1205 beta plate). Non-specific binding of [^125I]neurotensin, defined as the binding in the presence of 1 μM neurotensin (−20% of total binding), was subtracted from the total binding to calculate the specific binding.
The LIGAND program was used to analyze all binding data (Munson P. J. and Rodbard D., Analyt. Biochem. 107:220-239 (1980)). Specifically, this program was used to calculate equilibrium dissociation constants and maximal number of binding sites.
The analysis of PAG tissue in experiment 1 was as follows. Four rats were cannulated and treated on days -4, -2, and 0 with either ACSF only or NTR1-PNA as described above. One day after the final treatment, the PAG region of the rat brain was removed, homogenized, and used in the binding assays. Rats treated with ACSF only were used to derive control values for the percent control disintegrations per minute (dpm) and percent control receptors (fmol/mg wet weight). Thus, the values for ACSF only treated rats were set to 100 percent. One day after the final treatment, the PAG region from NTR1-PNA oligomer treated rats expressed 60-70 percent fewer [^125I]neurotensin binding sites than ACSF only treated rats.
In experiment 2, five rats were untreated and used as controls, two recovered rats were treated with ACSF only, and four rats were treated with NTR1-PNA oligomers. The two rats treated with ACSF only are designated as recovered since both rats previously received a single dose of PNA oligomers intraperitoneally (one received NTR1-PNA oligomers and the other MU1R-PNA oligomers). These rats, however, were not used until five days after the intraperitoneal (i.p.) PNA oligomer treatment. Thus, at the time the binding analysis was performed, these rats were completely normal as determined by the behavioral NT-mediated responses and the MOR-mediated response described above. Again, one day after the final treatment, the PAG region from NTR1-PNA oligomer treated rats expressed fewer [^125I]neurotensin binding sites than both the recovered ACSF only treated rats and untreated control rats. In this experiment, the reduction in binding sites was about 20-30 percent of those expressed by the untreated rats.
NT binding sites from the hypothalamus region of the rat brain were also analyzed. In this experiment, the hypothalamus region of rat brain was removed from the same rats used in experiment 2 to analyze the PAG region (five untreated control rats, two recovered ACSF only treated rats, and four NTR1-PNA oligomer treated rats). The untreated rats were used to derive control values. One day after the final treatment, the hypothalamus region from NTR1-PNA oligomer treated rats expressed 40-50 percent fewer [^125I]neurotensin binding sites than untreated control rats. […]

NTR1 binding sites = assay: [125I]NT binding in PAG, rest of brain and small intestine after i.p. AS-NTR1-PNA (Example 8); conditions: for Binding (% change vs control) NT: 24 hours after i.p. injection
[3] = PAG tissue, Experiment 1, control ACSF only, PAG injections days -4, -2, 0
[4] = PAG tissue, Experiment 2, untreated control

What does the source list for “NTR1-PNA: 12-mer antisense PNA oligomer to rat NTR1 coding region, 5′-CATTGCTCAAAC-3′ (SEQ ID NO: 1) (all peptide nucleic acid (PNA))”?
body temperature change in response to NT ([1]; 10 mg/kg intraperitoneally, NT 18 nmol 24 hours later): −0.5 °C; time until which NT-mediated hypothermia remained significantly reduced ([1]; PNA injected into PAG on days -4, -2, 0): day six; ED50 for reducing NT hypothermia ([1]; intraperitoneal dose-response, one batch of PNA): 3.2 mg/kg; % Control receptors ([2]; Hypothalamus tissue, untreated control, PNA injected into PAG): 51 % Control; % Control dpm's [2, 3]: 41 % Control; % Control receptors [2, 3]: 32 % Control; % Control dpm's [2, 4]: 81 % Control; % Control receptors [2, 4]: 67 % Control; fewer [125I]neurotensin binding sites than ACSF only treated rats ([2]; PAG, experiment 1, one day after final treatment): 60-70%; reduction in [125I]neurotensin binding sites vs untreated rats ([2]; PAG, experiment 2, one day after final treatment): 20-30%; effect of excess PNA added to brain homogenates on the binding assay ([2]; excess PNA added in vitro to brain homogenates): did not change these results; fewer [125I]neurotensin binding sites than untreated control rats ([2]; hypothalamus, one day after final treatment): 40-50%; reduction in the number of NTR1 binding sites vs untreated animals (NTR1 binding sites; PAG): 35%; Binding (% change vs control) NT (NTR1 binding sites; PAG): −35 ± 9 % change vs control; Binding (% change vs control) NT (NTR1 binding sites; Rest of Brain): −40 ± 1 % change vs control; Binding (% change vs control) NT (NTR1 binding sites; Small Intestine): −65 ± 5 % change vs control; reduction in the number of NTR1 binding sites vs untreated animals (NTR1 binding sites; rest of brain): 40%; reduction in the number of NTR1 binding sites vs untreated animals (NTR1 binding sites; small intestine): 65%
